Measured values from patent US6709849B2, “Dietary supplements for regulating male hormone” (priority 2002, dated 2004).

Key:
[1] = tested on: castrated male Wistar rats; assay: Growth of prostate, seminal vesicle and glandulae preputiales in castrated Wistar rats (wet weight); format: in vivo, rat; details: daily for 14 days, sacrificed 24 hours after last administration, yeast 3 ml daily intragastric, testosterone propionate 25 mg/kg daily i.m.
Method: (§1) The activated yeast compositions used in the following examples were prepared as described above, using Saccharomyces cerevisiae Hansen AS2.504, cultured in the presence of an alternating electric field having the electric field frequency and field strength exemplified in the parentheses following the recommended ranges listed in Section IV, supra. Control (i.e., untreated) yeast compositions were those prepared in the same manner as described in Section VI, supra, except that the yeast cells were cultured in the absence of EMFs. Unless otherwise indicated, the yeast compositions and the corresponding controls were administered to the animals by intragastric feeding.
To test the ability of the EMF-treated AS2.504 cells to regulate male hormone, twenty-four healthy male Wistar rats (about 50 g body weight, 20 days old) were selected. Under ether anesthesia, both testes of each rat were removed under sterile conditions. The castrated rats were then randomly divided into four equal groups. The activated yeast composition was administered to Group A rats at a dose of 3 ml daily continuously for 14 consecutive days. […]
Each rat was sacrificed 24 hours after the last administration of the composition of interest. […] The wet weight of the prostate and seminal vesicle was recorded (Table 2). […] The wet weight of the removed glandulae preputiales was also recorded (Table 2).

[2] = tested on: castrated male NIH-grade mice; assay: Growth of seminal vesicle and glandulae preputiales in castrated mice (weight); format: in vivo, mouse; details: 7 days, yeast 1.5 ml/dose twice daily intragastric, testosterone propionate 20 mg/kg i.m. every other day
Method: as §1
Forty male NIH-grade castrated mice (about 25-30 g each) were randomly divided into four equal groups. Three days after castration, the activated yeast composition was administered to each of the Group A mice twice daily at 1.5 ml/dose for seven consecutive days. The control yeast composition was administered to each of the Group B mice at the same daily dosage for seven consecutive days. Testosterone propionate was injected intramuscularly to each of the Group C mice in the buttocks at 20 mg/kg every other day, i.e., on days 1, 3, 5, and 7, for a total of 7 days. Saline was orally administered to each of the Group D […] twice daily at 1.5 ml/dose for seven consecutive days. […]

CCC(=O)O[C@H]1CC[C@H]2[C@@H]3CCC4=CC(=O)CC[C@]4(C)[C@H]3CC[C@]12C [testosterone propionate, Testosterone propionate]
Glandulae Preputiales (wet weight) [1]: 98.6 ± 15.8 | Prostate and Seminal Vesicle (wet weight) [1]: 91.5 ± 12.8 | Glandulae Preputiales (mg/100 g body weight) [2]: 323.7 ± 50.6 mg/100 g body weight | Seminal Vesicle (mg/100 g body weight) [2]: 268.2 ± 56.2 mg/100 g body weight
